Calls of active or inactive are those of the source. The calls are words filed in the database; no cut-off is given here.
Legend:
[1] = test system: B16-F10; test: Antitumor immunity in C57 mouse implanted with mouse B16-F10 cells assessed as increase in CD3+ CD4+ helper T cells in tumor at 5 mg/kg, ip administered every day for 14 days by flow cytometric analysis (reference value: 0.332%); type: functional; details: time 14 day
[2] = test system: B16-F10; test: Antitumor activity against mouse B16-F10 cells implanted in C57 mouse assessed as reduction in tumor weight at 2.5 mg/kg, ip administered every day for 14 days in the presence of NP19; type: functional, organism-based; details: time 14.0 day
[3] = MRT(0 to infinity) in Sprague-Dawley rat at 2 mg/kg, iv measured upto 12 hrs by UPLC-MS/ESI analysis; type: ADME, organism-based; details: in vivo
[4] = Acute toxicity in C57 mouse assessed as survival rate at 40.96 mg/kg, po administered daily for 14 days relative to control; type: organism-based; details: in vivo, time 14 day, read-out: Activity
[5] = AUC (0 to t) in Sprague-Dawley rat at 20 mg/kg, po measured upto 12 hrs by UPLC-MS/ESI analysis; type: ADME, organism-based; set-up: time < 12 hrs, dose 20 mg/kg, route po; details: in vivo
[6] = Acute toxicity in C57 mouse assessed as survival rate at 51.2 mg/kg, po administered daily for 14 days relative to control; type: organism-based; details: in vivo, time 14 day, read-out: Activity
[7] = test system: HepG2; test: Cell cycle arrest in human HepG2 cells assessed as accumulation of cells at G1 phase at 1 nM incubated for 48 hrs by RNaseA/PI staining based flow cytometric analysis (reference value: 56.11%); type: functional
[8] = MRT (0 to t) in Sprague-Dawley rat at 20 mg/kg, po measured upto 12 hrs by UPLC-MS/ESI analysis; type: ADME, organism-based; details: in vivo
[9] = test system: HepG2; test: Induction of apoptosis in human HepG2 cells assessed as late apoptotic cells at 5 nM incubated for 48 hrs by Annexin V-FITC/PI staining based flow cytometric analysis (reference value: 4.96 %); type: functional
[10] = biological target: Tubulin (Sus scrofa, UniProt P02554+P02550); test: (§1) Inhibition of pig brain tubulin polymerization in the presence of GTP by spectrophotometric analysis; type: tissue-based
[11] = biological target: Tubulin (Sus scrofa) (UniProt P02554+P02550); test: as §1; type: tissue-based
Tubulin (Sus scrofa), sequence (P02550 whole entry, looked up): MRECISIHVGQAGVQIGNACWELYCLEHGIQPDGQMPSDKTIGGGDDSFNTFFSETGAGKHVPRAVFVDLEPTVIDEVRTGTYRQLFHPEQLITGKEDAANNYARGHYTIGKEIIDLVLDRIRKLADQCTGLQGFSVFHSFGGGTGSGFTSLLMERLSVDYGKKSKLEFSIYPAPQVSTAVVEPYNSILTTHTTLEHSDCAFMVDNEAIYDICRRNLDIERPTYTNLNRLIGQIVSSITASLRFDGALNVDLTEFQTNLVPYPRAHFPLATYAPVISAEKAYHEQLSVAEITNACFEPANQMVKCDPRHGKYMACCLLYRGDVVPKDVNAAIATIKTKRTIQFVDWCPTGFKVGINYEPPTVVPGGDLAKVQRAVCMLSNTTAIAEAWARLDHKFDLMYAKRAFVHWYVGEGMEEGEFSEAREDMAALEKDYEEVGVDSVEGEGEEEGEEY
Tubulin (Sus scrofa), sequence (P02554 whole entry, looked up): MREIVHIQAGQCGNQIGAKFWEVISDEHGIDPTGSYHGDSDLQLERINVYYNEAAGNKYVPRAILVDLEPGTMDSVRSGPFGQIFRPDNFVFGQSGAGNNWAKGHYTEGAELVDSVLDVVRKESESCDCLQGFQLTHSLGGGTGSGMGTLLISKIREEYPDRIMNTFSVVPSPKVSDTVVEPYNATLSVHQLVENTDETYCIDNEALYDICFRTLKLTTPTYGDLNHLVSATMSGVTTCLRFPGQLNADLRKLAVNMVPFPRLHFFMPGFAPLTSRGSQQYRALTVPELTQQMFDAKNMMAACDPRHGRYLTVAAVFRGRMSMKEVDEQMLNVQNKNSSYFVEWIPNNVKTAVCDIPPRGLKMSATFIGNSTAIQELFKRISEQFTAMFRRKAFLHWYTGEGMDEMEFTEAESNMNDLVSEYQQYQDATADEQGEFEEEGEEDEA

[12] = Toxicity in C57 mouse implanted with mouse B16-F10 cells assessed as body weight loss at 5 mg/kg, ip administered every day for 14 days; type: organism-based; details: in vivo, 336 h, time 14 day
[13] = Clearance in Sprague-Dawley rat at 2 mg/kg, iv measured upto 12 hrs by UPLC-MS/ESI analysis; type: ADME, organism-based; details: in vivo
[14] = test system: HepG2; test: Antimigratory activity in human HepG2 cells assessed as reduction in recovery area at 1 nM incubated for 24 hrs by wound healing assay (reference value: 65.84%); type: functional; set-up: scale not given: the % may be the effect or the level left
[15] = Toxicity in C57 mouse implanted with mouse B16-F10 cells assessed as pathological changes in kidney at 5 mg/kg, ip administered every day for 14 days by H&E staining based microscopic analysis; type: organism-based; details: in vivo, 336 h, time 14 day
[16] = test system: B16-F10; test: Antitumor activity against mouse B16-F10 cells implanted in C57 mouse assessed as tumor growth inhibition at 5 mg/kg, ip administered every day for 14 days relative to control; type: functional; details: B16-F10, 336 h, time 14 day, read-out: TGI
[17] = test system: HepG2; test: Antimigratory activity in human HepG2 cells assessed as reduction in recovery area at 0.5 nM incubated for 24 hrs by wound healing assay (reference value: 65.84%); type: functional; set-up: scale not given: the % may be the effect or the level left
[18] = Cytotoxicity against HUVEC cells assessed as inhibition of cell proliferation incubated for 24 hrs by MTT assay; type: toxicity, cell-based; details: human
[19] = test system: HepG2; test: Cell cycle arrest in human HepG2 cells assessed as accumulation of cells at […] at 5 nM incubated for 48 hrs by RNaseA/PI staining based flow cytometric analysis (reference value: 23.81%); type: functional
[20] = test system: A2780S; test: Antiproliferative activity against parental human A2780S cells assessed as inhibition of cell proliferation incubated for 48 hrs by MTT assay; type: functional, cell-based
[21] = test system: B16-F10; test: Antitumor activity against mouse B16-F10 cells implanted in C57 mouse assessed as tumor growth inhibition at 2.5 mg/kg, ip administered every day for 14 days in the presence of NP19 relative to control; type: functional; details: B16-F10, 336 h, time 14 day, read-out: TGI
[22] = test system: B16-F10; test: Antitumor immunity in C57 mouse implanted with mouse B16-F10 cells assessed as increase in CD3+ CD4+ helper T cells in tumor at 2.5 mg/kg, ip administered every day for 14 days in the presence of NP19 by flow cytometric analysis (reference value: 0.332%); type: functional; details: time 14 day
[23] = Clearance in Sprague-Dawley rat at 20 mg/kg, po measured upto 12 hrs by UPLC-MS/ESI analysis; type: ADME, organism-based; details: in vivo
[24] = test system: HepG2; test: Induction of apoptosis in human HepG2 cells assessed as necrotic cells at 0.5 nM incubated for 48 hrs by Annexin V-FITC/PI staining based flow cytometric analysis (reference value: 0.443%); type: functional
[25] = test system: HepG2; test: Antimigratory activity in human HepG2 cells assessed as reduction in recovery area at 5 nM incubated for 24 hrs by wound healing assay (reference value: 65.84%); type: functional; set-up: scale not given: the % may be the effect or the level left
[26] = Toxicity in C57 mouse implanted with mouse B16-F10 cells assessed as body weight loss at 2.5 mg/kg, ip administered every day for 14 days in the presence of NP19; type: organism-based; details: in vivo, 336 h, time 14 day
[27] = Acute toxicity in C57 mouse assessed as lethal dose administered orally daily for 14 days; details: in vivo, route po, time 14 day
[28] = Toxicity in C57 mouse implanted with mouse B16-F10 cells assessed as pathological changes in liver at 5 mg/kg, ip administered every day for 14 days by H&E staining based microscopic analysis; type: organism-based; details: in vivo, 336 h, time 14 day
[29] = test system: HepG2; test: Inhibition of colony formation in human HepG2 cells incubated for 24 hrs by crystal violet staining based analysis; type: functional, cell-based; details: dose 0.5-5 nM
[30] = Antiproliferative activity against parental human A549S cells assessed as inhibition of cell proliferation incubated for 48 hrs by MTT assay; type: functional, cell-based
[31] = MRT (0 to infinity) in Sprague-Dawley rat at 20 mg/kg, po measured upto 12 hrs by UPLC-MS/ESI analysis; type: ADME, organism-based; details: in vivo
[32] = test system: HepG2; test: Induction of apoptosis in human HepG2 cells assessed as viable cells at 5 nM incubated for 48 hrs by Annexin V-FITC/PI staining based flow cytometric analysis (reference value: 87.6%); type: functional; details: read-out: Activity
[33] = test system: HUVEC; test: Disruption of vasculature in HUVEC cells assessed as interruption of capillary like networks incubated for 6 hrs by phase contrast microscopic analysis; type: functional, cell-based; details: Homo sapiens, dose 0.5-5 nM
[34] = Resistance index, ratio of IC50 for antiproliferative activity against paclitaxel resistant human A549/TxR cells to IC50 for antiproliferative activity against parental human A549S cells; type: functional
[35] = AUC (0 to infinity) in Sprague-Dawley rat at 20 mg/kg, po measured upto 12 hrs by UPLC-MS/ESI analysis; type: ADME, organism-based; set-up: dose 20 mg/kg, time < 12 hrs, route po; details: in vivo
[36] = test system: HepG2; test: Induction of apoptosis in human HepG2 cells assessed as viable cells at 0.5 nM incubated for 48 hrs by Annexin V-FITC/PI staining based flow cytometric analysis (reference value: 87.6%); type: functional; details: read-out: Activity
[37] = test system: HepG2; test: Cell cycle arrest in human HepG2 cells assessed as accumulation of cells at G1 phase at 5 nM incubated for 48 hrs by RNaseA/PI staining based flow cytometric analysis (reference value: 56.11%); type: functional

COc1cc(-c2nccc3[nH]c(-c4cccc5c4ccn5C)nc23)cc(OC)c1OC
Activity [1]: 0.954%
Activity [2]: Active
MRT inf [3]: 1.86 h
survival at 336 h [4]: 100%
AUC(0-t) at 12 h [5]: 3330 ng·h/mL
survival at 336 h [6]: 90%
Activity [7]: 41.37%
MRT last at 12 h [8]: 3.06 h
Activity [9]: 5.74%
IC50 [10]: 1010 nM
inhibition [11]: Dose-Dependent Effect
Activity [12]: Non-Toxic
clearance [13]: 11.2 mL/min/kg
Activity [14]: 32.2%
Activity [15]: Non-Toxic
inhibition in vivo at 5 mg/kg [16]: 63%
Activity [17]: 42.2%
IC50 at 24 h [18]: 62.1 nM
Activity [19]: 22.8%
IC50 [20]: 1.6 nM
inhibition in vivo at 2.5 mg/kg [21]: 77.8%
Activity [22]: 2.35%
CL/F [23]: 107 mL/min/kg
Activity [24]: 0.428%
Activity [25]: 22.16%
Activity [26]: Non-Toxic
LD50 at 336 h [27]: 66.9 mg/kg
Activity [28]: Non-Toxic
inhibition [29]: Dose-Dependent Effect
IC50 [30]: 8.5 nM
MRT inf [31]: 3.24 h
viability at 0.005 µM [32]: 11%
Activity [33]: Dose-Dependent Effect
Ratio IC50 [34]: 1.8
AUC(0-inf) [35]: 3380 ng·h/mL
viability at 0.0005 µM [36]: 84.6%
Activity [37]: 20.19%

Source: ChEMBL document CHEMBL5338766, “X-ray Crystal Structure-Guided Discovery of Novel Indole Analogues as Colchicine-Binding Site Tubulin Inhibitors with Immune-Potentiating and Antitumor Effects against Melanoma” (J Med Chem, 2023)
